These are literature values, as cited in patent US20180055752A1, “TOPICAL COMPOSITIONS TO REDUCE HAIR GROWTH” (The Regents of the University of California, priority 2016, published 2018).

The conditions of series [1]: eight children treated for hypoglycemia of infancy.
In the next series the test system is deer hair follicle. The settings on record: tolbutamide 1 mM.
Series [2] relates to Kir6.2/SUR1 and SUR2B K-ATP channels.
The test system of series [3] is cultured human hair follicles.

“Also recorded” adds a separate entry of the source. Like-named read-outs stand apart in the source and are kept apart here.

For the molecule `CC1=NS(=O)(=O)c2cc(Cl)ccc2N1` [diazoxide], in series [1], the “hypertrichosis as side effect” value is on record as “all developed hypertrichosis”.
With `COc1ccc(Cl)cc1C(=O)NCCc1ccc(S(=O)(=O)NC(=O)NC2CCCCC2)cc1` [glibenclamide], in the series with deer hair follicle (glibenclamide at a single concentration), the “inhibition of hair follicle growth” value is reported as “did not inhibit deer hair follicle growth”. In series [2], the “K-ATP channel subtype selectivity and potency” value is “nonselectively blocks both SUR1 and SUR2B forms with high affinity; also recorded: non-selectively blocks both SUR1 and SUR2B forms with high affinity”.
`CCCCNC(=O)NS(=O)(=O)c1ccc(C)cc1` [tolbutamide]: the “effect on hair follicle growth stimulated by minoxidil / diazoxide” value with deer hair follicle (10 μM minoxidil) is “abolished the effect of 10 μM minoxidil, and diazoxide”. The “K-ATP channel subtype selectivity and potency” value is “selectively inhibits Kir6.2/SUR1 K-ATP channels with low potency” in series [2] and “selectively inhibits Kir6.2/SUR1 KATP channels with low potency” in series [2] (listed as Tolbutamide). In addition, the effect on anagen entry in series [3] is “shorten anagen”.
